Key:
[1] = target: T1, Muscarinic acetylcholine receptor (Rattus norvegicus) (UniProt P08482+P08483+P08485+P08911+P10980)
Description: In vitro binding affinity against cortical muscarinic acetylcholine receptor measured by displacement of [3H]OXO-M.

[2] = target: T1, Muscarinic acetylcholine receptor (Rattus norvegicus); remark: listed apart in the source
Description: In vitro binding affinity against cortical muscarinic acetylcholine receptor measured by displacement of [3H]NMS.

Structure (SMILES) | K app [1] | K app [2]
Cc1nccnc1C1CN2CCC1CC2 (configuration not stated) | 0.01 µM | 1.51 µM
COc1cncc([C@H]2CN3CCCC2C3)n1 (some centres not stated) | 0.087 µM | 1.2 µM
C#CCOc1cncc(C2CN3CCC2C3)n1 (configuration not stated) | 0.0088 µM | 0.15 µM
CCc1nccnc1[C@H]1CN2CCC1C2 (some centres not stated) | 0.02 µM | 0.69 µM
Cc1cnc(C)c([C@H]2CN3CCC2C3)n1 (some centres not stated) | 0.011 µM | 0.19 µM
c1cnc(C2CN3CCC2CC3)cn1 (configuration not stated) | 0.00068 µM | 0.27 µM
CN(C)c1cncc([C@@H]2CN3CCC2C3)n1 (some centres not stated) | 0.07 µM | 0.03 µM
Cc1ncc(C2CN3CCC2CC3)nc1C (configuration not stated) | 0.0095 µM | 0.078 µM
C=CCOc1cncc([C@H]2CN3CCC2C3)n1 (some centres not stated) | 0.03 µM | 0.23 µM
Cc1ncc([C@H]2CN3CCC2C3)nc1C (some centres not stated) | 0.015 µM | 0.28 µM
CCc1cncc(C2CN3CCC2CC3)n1 (configuration not stated) | 0.0017 µM | 0.02 µM
Cc1ncc([C@@H]2CN3CCC2C3)nc1C (some centres not stated) | 0.013 µM | 0.53 µM
Cc1nccnc1[C@@H]1CN2CCC1C2 (some centres not stated) | 0.0016 µM | 5.2 µM
COc1cncc([C@@H]2CN3CCCC2C3)n1 (some centres not stated) | 0.0093 µM | 0.19 µM
CCCc1nccnc1C1CN2CCC1C2 (configuration not stated) | 0.015 µM | 0.35 µM
Clc1cncc(C2CN3CCC2C3)n1 (configuration not stated) | 0.00056 µM | 0.21 µM
CC(C)Oc1cncc([C@H]2CN3CCC2C3)n1 (some centres not stated) | 0.031 µM | 0.13 µM
CCOc1cncc(C2CN3CCC2CC3)n1 (configuration not stated) | 0.0021 µM | 0.019 µM
c1cnc([C@@H]2CN3CCC2C3)cn1 (some centres not stated) | 0.0007 µM | 1.6 µM
Nc1noc(C2CN3CCC2C3)n1 (stereo in doubt; 3b) | 0.0051 µM | 
COc1cncc([C@H]2CN3CCC2C3)n1 (some centres not stated) | 0.038 µM | 0.96 µM
Cc1nccnc1[C@H]1CN2CCC1C2 (some centres not stated) | 0.00026 µM | 0.21 µM
Cc1nc(C)c([C@H]2CN3CCC2C3)nc1C (some centres not stated) | 0.053 µM | 0.35 µM
Cc1cnc(C)c([C@@H]2CN3CCC2C3)n1 (some centres not stated) | 0.13 µM | 3 µM
c1cnc([C@@H]2CN3CCCC2C3)cn1 (some centres not stated) | 0.014 µM | 1.5 µM

Structure (SMILES) | K app [1] | K app [2]
CC(C)Oc1cncc([C@@H]2CN3CCC2C3)n1 (some centres not stated) | 0.012 µM | 0.049 µM
Cc1cnc(C)c(C2CN3CCC2CC3)n1 (configuration not stated) | 0.026 µM | 0.26 µM
CCc1cncc(C2CN3CCC2C3)n1 (stereo in doubt; 27a) | 0.0095 µM | 0.13 µM
Clc1cncc(C2CN3CCC2CC3)n1 (configuration not stated) | 0.00087 µM | 0.051 µM
c1ncc(C2CN3CCC2CC3)cn1 (configuration not stated) | 0.16 µM | 2.8 µM
C=CCOc1cncc([C@@H]2CN3CCC2C3)n1 (some centres not stated) | 0.021 µM | 0.12 µM
COc1cncc(C2CN3CCC2CC3)n1 (configuration not stated) | 0.0076 µM | 0.14 µM
Cc1cncc(C2CN3CCC2CC3)n1 (configuration not stated) | 0.0021 µM | 0.066 µM
c1cnc([C@H]2CN3CCC2C3)cn1 (some centres not stated) | < 8.6e-05 µM | 0.059 µM
Cc1cnc([C@@H]2CN3CCC2C3)c(C)n1 (some centres not stated) | 0.66 µM | 6.2 µM
Cc1cnc([C@H]2CN3CCC2C3)c(C)n1 (some centres not stated) | 0.017 µM | 0.75 µM
Oc1cncc(C2CN3CCC2CC3)n1 (configuration not stated) | 0.28 µM | 27 µM
Cc1cncc([C@@H]2CN3CCC2C3)n1 (some centres not stated) | 0.0015 µM | 0.47 µM
CCc1nccnc1[C@@H]1CN2CCC1C2 (some centres not stated) | 0.14 µM | 2.2 µM
CC(C)c1nccnc1C1CN2CCC1C2 (configuration not stated) | 0.022 µM | 0.48 µM
CCc1cncc(C2CN3CCC2C3)n1 (stereo in doubt; 27b) | 0.0021 µM | 0.15 µM
CN(C)c1cncc([C@H]2CN3CCC2C3)n1 (some centres not stated) | 0.057 µM | 0.86 µM
Cc1ncc(C2CN3CCC2CC3)cn1 (configuration not stated) | 0.091 µM | 1.5 µM
Clc1ccc(C2CN3CCC2CC3)nn1 (configuration not stated) | 0.098 µM | 3.5 µM
c1cnc([C@H]2CN3CCCC2C3)cn1 (some centres not stated) | 0.00084 µM | 0.4 µM
COc1cncc([C@@H]2CN3CCC2C3)n1 (some centres not stated) | 0.0098 µM | 0.46 µM
Brc1cncc(C2CN3CCC2CC3)n1 (configuration not stated) | 0.001 µM | 0.033 µM
Cc1nc(C)c([C@@H]2CN3CCC2C3)nc1C (some centres not stated) | 0.25 µM | 1.6 µM
Cc1cncc([C@H]2CN3CCC2C3)n1 (some centres not stated) | 0.0014 µM | 0.18 µM

Source: ChEMBL document CHEMBL1126146, “Synthesis and muscarinic activity of quinuclidinyl- and (1-azanorbornyl)pyrazine derivatives” (J Med Chem, 1992)
